“Also recorded” adds a separate entry of the source. Read-outs that look alike come from different tables or passages of the source.
Key:
[1] = test system: ampicillin-resistant E. coli; format: cell-based
Protocol: pAKgfp1 plasmid was obtained from Addgene for TEM-1 β-lactamase resistance gene, bla (43). The plasmid was cloned into chemically competent Zymo DH5a E. coli (Expressys). Untransformed Zymo DH5a was used as a control strain for β-lactamase activity assays. Liquid cultures were grown in 2% LB, incubated at 37° C. and shaken at 225 rpm. Solid cultures were grown on 2% LB broth, 1.5% agar at 37° C. Ampicillin sodium salt (Sigma Aldrich) was used for selection at a concentration of 300 μg/mL for MIC and CFU analysis. Optical density measurements were taken using a Tecan GENios at 562 nm with a bandwidth of 35 nm. All bacterial freezer stocks were stored in 40% glycerol at −80° C.

bla mRNA = bla mRNA expression by qPCR; format: cell-based, E. coli; conditions: 5 μM α-TSS, 25 μM α-RBS, 25 μM α-YUNR; absence of ampicillin
Protocol: Three biological replicates were used for bla expression analysis. Cultures were pretreated overnight in respective PNA and liquid media in the absence of ampicillin and collected for RNA at 16 hr.
50 μL of the respective culture was added to 100 μL of Bacteria RNAprotect (Qiagen) and incubated at room temperature for 5 min. The cells were then pelleted via centrifugation for 3 min at 10,000 rpm, the supernatant removed, and samples were flash frozen in an ethanol dry ice bath and stored at −80° C. Precautions were taken to protect RNA from RNases using RNaseZap (Life Technologies). RNA was extracted from frozen cell pellets using GeneJET RNA purification kit (Thermo Scientific) and 350-600 ng was treated with Turbo DNA-free (Ambion). 50 ng cDNA was synthesized using Maxima Universal First Stand cDNA synthesis kit (Thermo Scientific). 1.5 ng of cDNA was used for qPCR with Maxima SYBR Green qPCR master mix with ROX normalization (Thermo Scientific) using Illumina Eco qPCR system. Transcript levels were analyzed using the ΔCq method with respect to moderately expressed housekeeping gene cysG (43). Transcript levels were further analyzed for the mutant populations using the ΔΔCq method with respect to the no treatment populations.

[2] = test system: ampicillin-resistant E. coli; format: cell-based; remark: listed apart in the source
Protocol: Three biological replicates were selected from colonies and pretreated for 16 hr with respective α-TSS concentration in liquid media. After pretreatment, the cultures were diluted 1:100,000 into liquid media with respective concentration of ampicillin and α-TSS and allowed to grow with shaking at 37° C. for 24 hr. The final OD at 562 nm at 24 hr was used for data analysis.
Data fitting analysis was performed in Origin Pro 6.1. Data was fit to a sigmoidal/decay Boltzman function.
The degree of re-sensitization exerted by α-TSS in presence of varying concentrations of ampicillin above and below the MIC determined for α-TSS was then evaluated.

[3] = test system: ampicillin-resistant E. coli; experiment: Emergence of tolerance to α-TSS/ampicillin combination; format: cell-based; conditions: 35 cultures
Protocol: Ampicillin-resistant cultures were pretreated overnight with 2.5 μM α-TSS and then subjected to selection pressure of 2.5 μM α-TSS and 300 μg/mL of ampicillin for 24 hours. […] Mutant populations 1 and 2 were diluted and re-grown under selection pressure for another 24 hours.
Changes in expression of a set of key stress response genes was examined to identify the resistance mechanism involved in obtaining resistance to α-TSS. Thirteen representative stress response genes were measured by qPCR (FIG. 5B).

[4] = test system: ampicillin-resistant E. coli; experiment: Colony forming unit analysis with α-TSS and ampicillin; conditions: 1 μM α-TSS (below MIC), 300 μg/mL ampicillin
Protocol: Cultures were sampled at respective time points and serial dilutions were performed ranging from 10^2-10^10. For ampicillin sensitivity experiment, dilutions were plated on solid media and 300 μg/mL ampicillin sodium salt and grown at 37° C. for 24 hr followed by cell counting. For the other experiments, cultures were serially diluted into PBS and plated onto 2% agar and 1.5% agar. Plates were incubated for 16-24 h at 37° C. and counted for visible colonies.
Overnight cultures of ampicillin-resistant E. coli were pre-treated with different concentrations of α-TSS, followed by treatment with ampicillin.

MG1655 E. coli [5] = experiment: Growth (optical density, lag time) of MG1655; format: cell-based; conditions: 10 μM antisense inhibitor
Protocol: MG1655 E. coli cultures were started from individual colonies from 2% LB and 1.5% agar into M9 media. They were diluted 1:10,000 from overnight culture into fresh M9 with respective treatment and grown at 37° C. with 225 rpm shaking. Clinical strains were started from individual colonies grown on cation adjusted Mueller Hinton Broth with 1.5% agar into liquid CAMHB. These were diluted 1:10,000 into CAMHB medium with respective treatment and grown at 37° C. with 225 rpm shaking. Optical density measurements were taking using a Tecan GENios at 562 nm with a bandwidth of 35 nm. Lag time was calculated using Growth Rates Made Easy (Hall et al. Mol. Biol. Evol. 31(1):232-238). […]

MG1655 E. coli [6] = experiment: Colony forming unit analysis of MG1655; format: cell-based; conditions: 10 μM, 2 hours; listed as A-rpsD
Description: The effect of α-lexA, α-fnrS, and α-rpsD on cell viability using a colony forming unit analysis was then determine.

[7] = test system: MDR Salmonella typhimurium; experiment: Growth of clinical strain MDR S. typhimurium; format: cell-based; conditions: 10 μM
Protocol: (§1) MG1655 E. coli cultures were started from individual colonies from 2% LB and 1.5% agar into M9 media. They were diluted 1:10,000 from overnight culture into fresh M9 with respective treatment and grown at 37° C. with 225 rpm shaking. Clinical strains were started from individual colonies grown on cation adjusted Mueller Hinton Broth with 1.5% agar into liquid CAMHB. These were diluted 1:10,000 into CAMHB medium with respective treatment and grown at 37° C. with 225 rpm shaking. Optical density measurements were taking using a Tecan GENios at 562 nm with a bandwidth of 35 nm. Lag time was calculated using Growth Rates Made Easy (Hall et al. Mol. Biol. Evol. 31(1):232-238).
(§2) MDR E. coli was inhibited by four of the six oligomers tested (α-folC, α-ffh, α-lexA, and α-rpsD), extended-spectrum beta-lactamase (ESBL) K. pneumoniae was inhibited by two of the antisense oligomers (α-fnrS and α-rpsD), and New Delhi metallo-β-lactamase (NDM-1) K. pneumoniae was inhibited by one of the oligomers tested (α-rpsD) (FIGS. 15-16).

CRE E. coli = experiment: Growth of clinical strain CRE E. coli; format: cell-based, Escherichia coli; conditions: 10 μM
Protocol: as §1, §2

MDR E. coli = experiment: Growth of clinical strain MDR E. coli; format: cell-based; conditions: 10 μM
Protocol: as §1, §2

ESBL K. pneumoniae = experiment: Growth of clinical strain ESBL K. pneumoniae; format: cell-based, Klebsiella pneumoniae; conditions: 10 μM
Protocol: as §1, §2

NDM-1 K. pneumoniae = experiment: Growth of clinical strain NDM-1 K. pneumoniae; format: cell-based, Klebsiella pneumoniae; conditions: 10 μM
Protocol: as §1, §2

[8] = 0.5 μM α-TSS (below MIC), 24 hr

Question: How did the “re-sensitization of drug resistant E. coli to ampicillin” value [1] turn out when “KFFKFFKFFK-O-tactcatactct (antisense TACTCATACTCT; PNA, O-linker to (KFF)3K peptide, chemistry not fully specified) [α-TSS]” was run?
Answer: Its value is “re-sensitized drug resistant E. coli to ampicillin; also recorded: re-sensitization of drug resistant E. coli to ampicillin; also recorded: re-sensitize”.

Question: And the “growth in absence of ampicillin (toxicity of antisense agent)” value ([1]; absence of ampicillin)?
Answer: Its value is “non-toxic effect; also recorded: No inhibition”.

Question: What about the “growth of drug-resistant E. coli in presence of ampicillin” value ([1]; antisense oligomer plus 300 μg/mL ampicillin) of the same substance?
Answer: Its value is “hindered cell growth; also recorded: impact growth; also recorded: significant antibiotic effect”.

Question: What about the “minimum inhibitory concentration (MIC)” value ([1]; in presence of 300 μg/mL ampicillin, after overnight pretreatment with antisense agent) of the same substance?
Answer: The value was 2.5 µM.

Question: And the “bla mRNA expression” value (bla mRNA)?
Answer: Its value is “did not affect bla transcript levels; also recorded: did not significantly reduce bla expression”.

Question: What about the “slope of the transition from resistant to sensitive (Boltzman fit)” value ([2]; 0.5 μM α-TSS (below MIC)) of the same substance?
Answer: Its value is −0.0038 ODmLμg^−1.

Question: And the “ampicillin concentration up to which growth is unhindered” value [2, 8]?
Answer: Its value is 250 µg/mL.

Question: What about the “ampicillin concentration with no growth” value [2, 8] of the same substance?
Answer: The value was 550 µg/mL.

Question: What about the “decrease in ampicillin MIC compared to the no treatment cultures” value ([2]; 5 μM α-TSS (above MIC)) of the same substance?
Answer: Its value is “greater than 20 fold”.

Question: What about the “increase in negative slope compared to below MIC and no treatment” value ([2]; 5 μM α-TSS (above MIC)) of the same substance?
Answer: The value was “Greater than two fold”.

Question: What about the “slope of the transition from resistant to sensitive (Boltzman fit)” value ([2]; 5 μM α-TSS (above MIC)) of the same substance?
Answer: The value was −0.010 OD/μg/mL.

Question: What about the “lowest ampicillin concentration showing a decrease in growth” value ([2]; 5 μM α-TSS (above MIC), 24 hr) of the same substance?
Answer: The value was 25 µg/mL.

Question: What about the “shift in ampicillin sensitivity” value ([2]; α-TSS at 0.5 μM (below MIC) and 5 μM (above MIC)) of the same substance?
Answer: The value was “leftward shift in ampicillin sensitivity”.

Question: What about the “share of independent cultures showing emergence of tolerance” value ([3]; 2.5 μM α-TSS (MIC)/β-lactam) of the same substance?
Answer: The value was “less than 5%”.

Question: And the “independent cultures showing emergence of tolerance” value ([3]; 5 μM α-TSS/ampicillin)?
Answer: Its value is “None”.

Question: What about the “colony forming units over time” value [4] of the same substance?
Answer: The value was “increased with time”.

Question: With “KFFKFFKFFK-O-ttgccattttct (antisense TTGCCATTTTCT; all peptide nucleic acid (PNA); (KFF)3K cell-penetrating peptide joined to the N-terminus through an O-linker) [α-rpsD, 12-mer antisense PNA centered on start codon of rpsD, O-linker to (KFF)3K]” as the substance, how does the lag time (MG1655 E. coli [5]) read?
Answer: Its lag time is “significantly increased lag time”.

Question: What about the “growth of MG1655 E. coli cultures” value (MG1655 E. coli [5]; 24 h) of the same substance?
Answer: Its value is “completely inhibited; also recorded: completely prevented cell growth; also recorded: Complete inhibition”.

Question: And the “colony forming units per milliliter after two hours of treatment” value (MG1655 E. coli [6])?
Answer: The value was “zero”.

Question: What about the “growth inhibition of MDR S. typhimurium” value [7] of the same substance?
Answer: The value was “inhibited”.

Question: What about the “growth inhibition of CRE E. coli” value (CRE E. coli) of the same substance?
Answer: The value was “completely prevented growth; also recorded: inhibited”.

Question: What about the “growth inhibition of MDR E. coli” value (MDR E. coli) of the same substance?
Answer: The value was “inhibited”.

Question: And the “growth inhibition of ESBL K. pneumoniae” value (ESBL K. pneumoniae)?
Answer: The value was “inhibited”.

Question: What about the “growth inhibition of NDM-1 K. pneumoniae” value (NDM-1 K. pneumoniae) of the same substance?
Answer: The value was “inhibited”.

Source: patent US20180002692A1, “Sequence Specific and Organism Specific Antimicrobials and Related Materials and Methods” (priority 2015, published 2018)
